Values after ≈ are worked out from the molar mass of the structure shown. “Also recorded” adds a separate entry of the source. Read-outs that look alike come from different tables or passages of the source.
Assays:
[1] = system: SARS-CoV-2 (strain USA-WA1/2020); experiment: microbe, parasite or virus in culture; format: cell-based
[2] = system: SARS-associated coronavirus Strain FFM1; conditions: Strain FFM1/Caco-2; cited from earlier work
[3] = human; cited from earlier work
[4] = system: SARS coronavirus Strain 39849; conditions: Strain 39849/Vero E6; cited from earlier work
[5] = system: SARS coronavirus 2003VA2774; conditions: cited from earlier work
SARS-CoV Strain v2163 = conditions: in vivo, cited from earlier work
[6] = system: SARS-associated coronavirus Strain FFM1; conditions: Strain FFM1/CL-14; cited from earlier work
human CoV strain OC43 = conditions: Strain OC43/BS-C-1 Kidney cells (African Green Monkey); inhibition of CPE; cited from earlier work
[7] = cited from earlier work
[8] = system: avian H5N1 and H7N9 influenza hemagglutinins (HAs); conditions: in vivo; cited from earlier work
Ebola Virus = conditions: in vivo, 6 mg/kg
[9] = Clinical safety and tolerability in humans; format: in vivo, human
Text: Favorable safety profiles have been seen for intraperitoneal, intravenous, and intranasal routes of administration of tdsRNA.

Mouse Hepatitis CoV MHV = conditions: Mouse Hepatitis CoV MHV/BALB/c mice/IP; 10 μg/dose; cited from earlier work
H5N1 influenza virus = conditions: in vivo; cited from earlier work
[10] = Synergy of rintatolimod with antiviral and antiproliferative drugs
Text: These interferons include rIFN-α-2a, rIFN-β-1b, rIFN-γ.

[11] = system: SARS virus (Urbani Strain); conditions: in vivo, cited from earlier work
[12] = system: normal, human-derived tracheal/bronchial epithelial (TBE) cells
H5N1 influenza viruses = conditions: in vivo; cited from earlier work
TLR3 = TLR3 agonist selectivity versus RNA helicase sensors (MDA5, RIG-I); conditions: versus TLR-3 independent pathways (MDA5, RIG-I)
Text: (§1) Of the tdsRNA of the disclosure, the tdsRNA of formula 1 and formula 5 is preferred. This is because mis-paired regions of base pair hydrogen bonding accelerate chain hydrolysis while preserving biological activity compared to, for example, formula 3 and formula 4. Also formula 1 and formula 5 had decreased toxicity and improved safety compared to the tdsRNA which has an absence of mis-pairing.

TNF-α = TNF-α induction
Text: as §1

[13] = Development of antibodies to the dsRNA in usage
Text: as §1

## CCC(CC)COC(=O)[C@H](C)N[P@](=O)(OC[C@H]1O[C@@](C#N)(c2ccc3c(N)ncnn23)[C@H](O)[C@@H]1O)Oc1ccccc1 [Remdesivir]
[1]; 0.001 μg/mL
  Log10 CCID50 virus per 0.2 mL: 4.30
[1]; 0.01 μg/mL
  Log10 CCID50 virus per 0.2 mL: 3.67
[1]; 0.1 μg/mL
  Log10 CCID50 virus per 0.2 mL: 3.00
[1]; 1 μg/mL
  Log10 CCID50 virus per 0.2 mL: 3.00
[1]; Severe acute respiratory syndrome coronavirus 2, read-out: EC90 (concentration to reduce virus yield by 1 log10)
  EC90: 0.01 µg/mL (≈ 0.0166 µM)

## NC(=O)c1ncn([C@@H]2O[C@H](CO)[C@@H](O)[C@H]2O)n1 [Ribavirin]
[2]
  EC50: EC50: 4.7 μg/mL
[3]
  clinically achievable serum concentrations: 3.7 µg/mL
[4]
  EC50: EC50: 50-100 μg/mL
[5]
  IC100: IC100: 5,000 μg/mL
SARS-CoV Strain v2163
  Survival (mice surviving/total): (3/10) 65
[6]
  EC50: EC50: 5.3 μg/mL

## Polyribosinic-Polyribocytidylic Acid Stabilized with Poly-L-lysine, in Carboxymethylcellulose [Poly ICLC]
Human CoV strain OC43
  EC50: EC50: >100 μg/mL

## rIn.r(C12U)n [Rintatolimod]
[7]; 700 mg in an average weight human (70 kg), equivalent to 10 mg/kg
  tolerability of dosage level: generally well-tolerated
[7]; Chronic Fatigue Syndrome (CFS) patients, placebo-controlled trials
  tolerability administered intravenously: generally well-tolerated
[8]
  cross-reactive IgA antibody formation against avian H5N1 and H7N9 influenza hemagglutinins: induced cross-reactive IgA antibody formation
  tolerability of combinational use with FluMist: well tolerated
Ebola Virus
  Survival: 100%
[9]; clinical trials, over 1,200 patients
  drug-related deaths: no drug-related deaths
[9]; over 1,200 patients, over 100,000 doses
  tolerability in clinical trials: well-tolerated
[9]; two placebo-controlled, randomized studies
  serious adverse events compared to placebo: no increase
Mouse Hepatitis CoV MHV
  Survival: increased survival
H5N1 influenza virus
  Vaccine specific salivary IgA and serum IgG antibodies: detected after the second immunization
  protection from challenge infection with the homologous virus: completely protected
  serum neutralizing antibody activity against homologous and heterologous H5N1 influenza virus: developed serum neutralizing anti-body activity
[10]; HIV/AIDS, rIFN-α-2a, rIFN-β-1b, rIFN-γ
  synergy with α, β, and γ interferons, antiviral indication: synergy; also recorded: synergistic
[10]; Influenza (oseltamivir, zanamivir), HIV/AIDS (abacavir, zidovudine, zalcitabine, didanosine, stavudine, efavirenz, indinavir, ritonavir, nelfinavir, amprenavir, ribavirin)
  synergy with small molecule antiviral drugs: synergy; also recorded: synergistic
[10]; interferons (nIFN-α, rIFN-α-2a, nIFN-β, rIFN-β-1b, nIFN-γ), IL-2, Anti-PD-L1
  synergy, antiproliferative (cancer) indications: synergistic
[11]; ip
  Drug Dose giving reduction of virus lung titers below level of detection on Day 3: 10 mg/kg
[11]
  SARS virus (Urbani Strain) titers in the lungs: Complete inhibition to below detectable levels; also recorded: reduced virus lung titers to below detectable limits
[12]; 0.5 mg/mL
  cytotoxic / cellular toxicity: 0%
[12]; 1.5 mg/mL
  cytotoxic / cellular toxicity: 0%
[12]; 4.5 mg/mL
  cytotoxic: 12%
[12]; 10 mg/mL
  cytotoxic: 47%
SARS-CoV Strain v2163; 10 mg/kg/day
  lung scores and weight loss: significantly reduced
SARS-CoV Strain v2163
  Survival: 100%
  Survival (mice surviving/total): 10/10 and (10/10)
  decline of virus in the lungs compared with untreated animals: more rapid decline of virus in the lungs
H5N1 influenza viruses
  antigen specific IgA response in the nasal mucosa: robust antigen specific IgA response
  protection against challenge with homologous and heterologous H5N1 influenza viruses: protected

## rIn.r(CxU)n [formula 1]
TLR3
  TLR3 agonist selectivity: selective TLR3 agonist
TNF-α
  TNF-α induction: does not induce TNF-α
[13]
  development of antibodies: no development of antibodies

## rIn.rCn [formula 4]
TLR3
  TLR3 agonist selectivity: non-selective
TNF-α
  TNF-α induction: high levels

## rugged dsRNA [formula 5]
TLR3
  TLR3 agonist selectivity: selective TLR3 agonist
TNF-α
  TNF-α induction: does not induce TNF-α
[13]
  development of antibodies: no development of antibodies
